Results as given in the NIST ThermoML archive (doi:10.1021/je300938w).
± gives the expanded uncertainty stated by the source.

Key:
[1] = wn = mass fraction of the nth substance listed; conditions: 101 kPa, Liquid; for viscosity: Concentric cylinders viscometry; for mass density: Vibrating tube method
[2] = refractive index (Na D-line) (dimensionless); wn = mass fraction of the nth substance listed; conditions: 101 kPa, Liquid, Standard Abbe refractometry

CC(O)CNCC(C)O (stereo not given) [N-(2-hydroxypropyl)-2-hydroxy-1-propanamine] + O
Conditions | mass density, [1] [kg/m3] | refractive index, [2] | viscosity, [1] [mPa·s]
298.15 K, w1 = 0.05 | 1000.6 ± 0.041 | 1.34052 ± 0.00031 | 1.117 ± 0.0075
298.15 K, w1 = 0.1 | 1003.53 ± 0.051 | 1.34766 ± 0.00032 | 1.394 ± 0.0086
298.15 K, w1 = 0.15 | 1006.99 ± 0.065 | 1.35486 ± 0.00032 | 1.814 ± 0.01
298.15 K, w1 = 0.2 | 1010.4 ± 0.083 | 1.3621 ± 0.00033 | 2.288 ± 0.013
298.15 K, w1 = 0.25 | 1014.1 ± 0.1 | 1.36925 ± 0.00033 | 3.026 ± 0.016
303.15 K, w1 = 0.05 | 999.133 ± 0.041 | 1.33988 ± 0.00031 | 0.9968 ± 0.0072
303.15 K, w1 = 0.1 | 1001.97 ± 0.05 | 1.34693 ± 0.00032 | 1.228 ± 0.008
303.15 K, w1 = 0.15 | 1005.27 ± 0.064 | 1.35421 ± 0.00032 | 1.569 ± 0.0094
303.15 K, w1 = 0.2 | 1008.5 ± 0.082 | 1.3613 ± 0.00033 | 1.952 ± 0.011
303.15 K, w1 = 0.25 | 1011.98 ± 0.1 | 1.36822 ± 0.00033 | 2.539 ± 0.014
308.15 K, w1 = 0.05 | 997.454 ± 0.042 | 1.33919 ± 0.00031 | 0.8984 ± 0.0069
308.15 K, w1 = 0.1 | 1000.19 ± 0.049 | 1.34623 ± 0.00032 | 1.093 ± 0.0075
308.15 K, w1 = 0.15 | 1003.35 ± 0.063 | 1.35332 ± 0.00032 | 1.38 ± 0.0087
308.15 K, w1 = 0.2 | 1006.41 ± 0.081 | 1.36036 ± 0.00033 | 1.695 ± 0.01
308.15 K, w1 = 0.25 | 1009.69 ± 0.1 | 1.36736 ± 0.00033 | 2.167 ± 0.013
313.15 K, w1 = 0.05 | 995.576 ± 0.042 | 1.33844 ± 0.00031 | 0.8189 ± 0.0067
313.15 K, w1 = 0.1 | 998.214 ± 0.05 | 1.34533 ± 0.00032 | 0.9814 ± 0.0072
313.15 K, w1 = 0.15 | 1001.24 ± 0.062 | 1.35237 ± 0.00032 | 1.224 ± 0.0081
313.15 K, w1 = 0.2 | 1004.14 ± 0.08 | 1.35947 ± 0.00033 | 1.485 ± 0.0093
313.15 K, w1 = 0.25 | 1007.23 ± 0.1 | 1.36641 ± 0.00033 | 1.871 ± 0.011
318.15 K, w1 = 0.05 | 993.508 ± 0.043 | 1.33755 ± 0.00031 | 0.7442 ± 0.0065
318.15 K, w1 = 0.1 | 996.055 ± 0.051 | 1.3445 ± 0.00032 | 0.8856 ± 0.0069
318.15 K, w1 = 0.15 | 998.951 ± 0.062 | 1.35149 ± 0.00032 | 1.095 ± 0.0076
318.15 K, w1 = 0.2 | 1001.71 ± 0.078 | 1.35838 ± 0.00033 | 1.313 ± 0.0086
318.15 K, w1 = 0.25 | 1004.62 ± 0.099 | 1.36537 ± 0.00033 | 1.633 ± 0.01
323.15 K, w1 = 0.05 | 991.263 ± 0.044 | 1.33675 ± 0.00031 | 0.6884 ± 0.0063
323.15 K, w1 = 0.1 | 993.722 ± 0.052 | 1.34355 ± 0.00032 | 0.8047 ± 0.0067
323.15 K, w1 = 0.15 | 996.497 ± 0.063 | 1.35044 ± 0.00032 | 0.9924 ± 0.0073
323.15 K, w1 = 0.2 | 999.106 ± 0.078 | 1.35739 ± 0.00033 | 1.171 ± 0.0081
323.15 K, w1 = 0.25 | 1001.86 ± 0.098 | 1.36423 ± 0.00033 | 1.438 ± 0.0094
328.15 K, w1 = 0.05 | 988.852 ± 0.045 | 1.33566 ± 0.00031 | 0.6407 ± 0.0062
328.15 K, w1 = 0.1 | 991.224 ± 0.053 | 1.34256 ± 0.00032 | 0.7357 ± 0.0065
328.15 K, w1 = 0.15 | 993.882 ± 0.064 | 1.3494 ± 0.00032 | 0.9053 ± 0.007
328.15 K, w1 = 0.2 | 996.358 ± 0.079 | 1.35615 ± 0.00033 | 1.052 ± 0.0076
328.15 K, w1 = 0.25 | 998.953 ± 0.097 | 1.36294 ± 0.00033 | 1.278 ± 0.0087
333.15 K, w1 = 0.05 | 986.277 ± 0.046 | 1.33467 ± 0.00031 | 0.5833 ± 0.006
333.15 K, w1 = 0.1 | 988.56 ± 0.054 | 1.34147 ± 0.00032 | 0.6793 ± 0.0063
333.15 K, w1 = 0.15 | 991.114 ± 0.065 | 1.34831 ± 0.00032 | 0.8324 ± 0.0068
333.15 K, w1 = 0.2 | 993.463 ± 0.08 | 1.35501 ± 0.00033 | 0.9512 ± 0.0073
333.15 K, w1 = 0.25 | 995.91 ± 0.098 | 1.36175 ± 0.00033 | 1.145 ± 0.0082
338.15 K, w1 = 0.05 | 983.349 ± 0.047 | 1.33363 ± 0.00031 | 0.5507 ± 0.0059
338.15 K, w1 = 0.1 | 985.762 ± 0.055 | 1.34037 ± 0.00032 | 0.6341 ± 0.0062
338.15 K, w1 = 0.15 | 988.199 ± 0.066 | 1.34702 ± 0.00032 | 0.7693 ± 0.0066
338.15 K, w1 = 0.2 | 990.404 ± 0.08 | 1.35377 ± 0.00033 | 0.8643 ± 0.007
338.15 K, w1 = 0.25 | 992.735 ± 0.099 | 1.36051 ± 0.00033 | 1.032 ± 0.0078
343.15 K, w1 = 0.05 | 980.387 ± 0.048 | 1.33224 ± 0.00031 | 0.5267 ± 0.0059
343.15 K, w1 = 0.1 | 982.81 ± 0.056 | 1.33899 ± 0.00032 | 0.6006 ± 0.0061
343.15 K, w1 = 0.15 | 985.138 ± 0.067 | 1.34583 ± 0.00032 | 0.725 ± 0.0065
343.15 K, w1 = 0.2 | 987.241 ± 0.081 | 1.35253 ± 0.00033 | 0.8146 ± 0.0069
343.15 K, w1 = 0.25 | 989.434 ± 0.1 | 1.35922 ± 0.00033 | 0.9579 ± 0.0075
